{"source": "patent US10470445B2", "about": "“Fumarylacetoacetate hydrolase (Fah)-deficient and immunodeficient rats and uses thereof” (YECURIS CORPORATION, priority 2011, dated 2019)", "test_system": "Nude (RNU) rats", "test": "FK506 immunosuppression of nude rats transplanted with human hepatocytes, body size", "format": "in vivo, rat", "conditions": "2 mg/kg/day FK506, four weeks after hepatocyte injection", "description": "Forty nude rat pups (2 weeks old) were obtained from Charles River and acclimated for a week before the study began. The rats were assigned to + or −immunosuppressive groups, with controls in each group (see Table 3 below). Rats assigned to the +immunosuppressive group were treated with 2 mg/kg/day subcutaneous doses of FK506 (Tacrolimus) throughout the study, with the initial dosage being 20 μl of 5 mg/mL FK506 ([…]) per day, based upon an average initial animal weight of 50 g at the start of the study. The −immunosuppression rats were not treated with FK506, but were injected subcutaneously with the same volume of saline throughout the study. All of the rats were then given an intravenous injection (retroorbital) of uPA adenovirus (2.5×10^9 plaque forming units (PFU) per 50 g rat) 48-96 hours before hepatocyte injection.\nTwo weeks after study commencement, the dose of FK506 was increased to 30 μl of 5 mg/mL due to an increase in animal weight. Four weeks after study commencement, the dose of FK506 was again increased to 25 μl of 10 mg/mL to account for growth of the rats.\nFour weeks after hepatocyte injection (˜5 weeks after study commencement), at least 50 μl of whole blood was collected from the rats and allowed to clot for 1 hour at room temperature. Serum was collected by centrifuging the whole blood at 1,500 rpm×15 minutes. […]"}
{"smiles": "C=CC[C@@H]1/C=C(\\C)C[C@H](C)C[C@H](OC)[C@H]2O[C@@](O)(C(=O)C(=O)N3CCCC[C@H]3C(=O)O[C@H](/C(C)=C/[C@@H]3CC[C@@H](O)[C@H](OC)C3)[C@H](C)[C@@H](O)CC1=O)[C@H](C)C[C@@H]2OC", "note": "[FK506]", "values": [{"measurement": "body size on reweighing versus non-treated rats", "value": "significantly smaller than their non-treated counterparts"}]}
